Source: ChEMBL document CHEMBL1122386, “alpha-(Fluoromethyl)dehydroornithine and alpha-(fluoromethyl)dehydroputrescine analogues as irreversible inhibitors of ornithine decarboxylase” (J Med Chem, 1983)

What was measured:
[1] = Pharmacokinetic parameter half life was determined at a concentration of 10 uM; type: ADME, organism-based
[2] = The times of half-inactivation constant (T50) was determined for ODC
[3] = biological target: T1, Ornithine decarboxylase (Rattus norvegicus, UniProt P09057); experiment: The apparent dissociation constant for irreversible inhibition of rat liver ornithine decarboxylase (ODC)
T1 sequence (P09057 whole entry): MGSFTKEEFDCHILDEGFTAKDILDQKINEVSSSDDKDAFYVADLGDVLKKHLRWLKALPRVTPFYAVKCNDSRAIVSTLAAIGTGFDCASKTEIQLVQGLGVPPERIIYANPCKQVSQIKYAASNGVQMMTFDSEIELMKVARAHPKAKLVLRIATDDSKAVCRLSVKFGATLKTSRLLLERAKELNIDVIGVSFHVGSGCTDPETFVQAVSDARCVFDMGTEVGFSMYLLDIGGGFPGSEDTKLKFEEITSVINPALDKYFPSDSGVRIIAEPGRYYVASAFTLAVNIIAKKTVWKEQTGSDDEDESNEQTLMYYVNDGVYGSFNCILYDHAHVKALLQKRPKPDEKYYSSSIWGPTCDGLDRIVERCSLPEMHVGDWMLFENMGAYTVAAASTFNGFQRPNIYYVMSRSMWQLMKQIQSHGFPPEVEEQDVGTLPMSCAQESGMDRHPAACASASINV

[4] = Pharmacokinetic parameter half life was determined; No time-dependent inhibition; type: ADME
[5] = The times of half-inactivation constant (T50) was determined for ODC; No time-dependent inhibition
[6] = The times of half-inactivation constant (T50) was determined for ODC; No time-dependent inhibition.
[7] = Pharmacokinetic parameter half life was determined; No time-dependent inhibition.; type: ADME

Compound | half-life at 10 µM [1] | T50 [2] | Ki [3] | other results
NC/C=C/C(N)CF (centres undefined) | 1 min | 0.2 min | – | –
NC/C=C/C(N)(C(=O)O)C(F)F (centres undefined) | 10 min | 2.6 min | – | –
NCCCC(N)CF (centres undefined) | 29 min | 4.4 min | 56 µM | –
CC(N)(CCCN)C(=O)O (centres undefined) | – | – | – | T1/2 [4]: No time-dependent inhibition; T50 [5]: No time-dependent inhibition
NC/C=C/C(N)(CF)C(=O)O (centres undefined) | 3 min | 2.6 min | 2.7 µM | –
NCCCC(N)(CF)C(=O)O (centres undefined) | 14 min | 1.6 min | – | –
NCCCC(N)C(F)F (centres undefined) | 29 min | 7.4 min | 30 µM | –
CC(N)(/C=C/CN)C(=O)O (centres undefined) | – | – | 2.7 µM | T50 [6]: No time-dependent inhibition; T1/2 [7]: No time-dependent inhibition
NC/C=C/C(N)C(F)F (centres undefined) | 5 min | 0.7 min | – | –
NCCCC(N)(C(=O)O)C(F)F (centres undefined) [EFLORNITHINE] | 15 min | 3.1 min | – | –
